Experiments:
human Axioloids = test: Axioloid morphogenesis during Matrigel embedding phase (brightfield live imaging, length, segment and somite quantification); assay type: cell-based; conditions: added during MG embedding phase 72 h-120 h (RA 100 nM, ROL 10 μM, RAL 1 μM); 96 h and 120 h
Protocol: Human iPS cells were seeded on iMatrix-511 silk (Nippi) coated dishes at a density of 1.3×10^4 cells/well into 6 well plates 5 days prior to Axioloid induction and used at 60% confluency. All subsequent induction steps were performed in AK02N (Reprocell) medium without component C (AK02N-C). Initially, hiPSCs were pulsed with a strong mesoderm and primitive streak fate inducing combination of bFGF (20 ng ml-1) and WNT agonist CHIR99021 (5 μM) for 24 h. CHIR99021 concentration may need to be adjusted depending on the used iPSC line, but remains usually in the range of 3-5 μM. 24 h after the initial pulse, cells were dissociated with Accutase (Thermo Fisher Scientific) and cultured for 24 h in 96-well U-bottom low attachment plates (Sumilon) at 500 cells/well in 50 μl of AK02N—C based aggregation medium supplemented with CHIR99021 (5 μM), basic FGF (20 ng ml^1), TGFβ inhibitor SB431542 (10 μM) and ROCK inhibitor Y27632 (10 μM). 24 h after aggregation, 150 μl of AK02N-C medium was added into each well and exchanged again after 24 h with 150 μl of fresh AK02N-C medium. 48 h after aggregation Axioloids were transferred one-by-one into BSA-treated 96-well flat-bottom low attachment plates (Watson) and embedded into 80 μl of AK02N-C medium containing 10% growth factor-reduced Matrigel (Corning) and cultured further at 37° C. and 5% CO2 for 24 to 48 h. Depending on the experimental setup Retinoic Acid signaling molecules, i.e. Retinoic Acid (RA) (100 nM), Retinol (ROL) (10 μM) or all trans-Retinal (RAL) (1 μM) were added to the MG containing medium throughout the embedding phase. Small molecule inhibitors of FGF (PD173074 (250 nM)), WNT (XAV939 (2 μM)), RA (BMS493 (2.5 μM)) and Notch (DAPT (25 μM)) signaling were also added during the embedding phase and their effects on Axioloids assessed accordingly. For details of the used recombinant human proteins, small molecule agonists and inhibitors, please see Supplementary Table 1. […]
Periodicity of segmentation was quantified from brightfield live-cell imaging data obtained with an inverted Ti2 microscope system (Nikon) using PlanApo λ 10× objective. […]
Quantification of length or intensity based on imaging data was performed using Fiji^57. Rostrocaudal length of formed segments was quantified from a center plane in z-stack images of Phalloidin-stained Axioloids. The longitudinal axes of Axioloids were measured on bright field images using Segmented Line tool. For quantifying fluorescent intensity of HCR or IHC staining, first, maximum intensity z projection images were created from multi-channel z-stack confocal images, then intensity of each channel was quantified along the longitudinal axis of Axioloids by Segmented Line tool, with a line width which corresponds to approximately 80% of the lateral length of Axioloids. […]

[1] = test system: segmentation clock gene HES7; test: HES7:Luciferase reporter oscillation of the segmentation clock in Axioloids; assay type: cell-based, human; conditions: RA, RAL or ROL, with or without MG
Protocol: Bioluminescence live-cell imaging of HES7-reporter (201B7Luc) iPSC-derived human Axioloids (201B7Luc) was performed and signal was quantified as previously described^55,56 Briefly, one day before imaging glass-bottom 96-well plates (Iwaki) were coated with 50 μl of 1.5% PVA (Nacalai), the PVA solution was hereby aspirated and the plates dried on top of a clean bench overnight at room temperature. Prior to imaging, Axioloids were set onto coated glass-bottom 96-well plates with 80 μl of AK02N-C medium containing […] D-Luciferin and 10% Matrigel. Small molecule agonists and antagonists of signaling pathways were added according to the experimental setup. Bioluminescence signals of Axioloids induced from the HES7-reporter cell line were recorded on IX83 (Olympus) equipped with iXon EMCCD camera (Andor) cultured in a stage top incubator (Tokai Hit). Signal was acquired with 2×2 binning and 1 min exposure. Cosmic rays were removed from the raw images by applying spike noise filter, then smoothed by median filter. Temporal fluctuation of signal baseline was corrected by background subtraction. Kymograph was generated by averaging luminescence intensity values along the lateral axis of Axioloids and resulted values were aligned in temporal order.
Periodicity of HES7 oscillation was quantified from time-series luminescence intensity data obtained from either live imaging or Kronos HT (Atto) measurements using HES7 reporter-derived Axioloids. For Kronos HT based oscillation measurements, Axioloids were transferred at 72 h (48 h after aggregation) into 24-well film-bottom plates (Eppendorf) covered in 400 μl of embedding medium (+/−MG) supplemented with D-Luciferin (100 μM) (bioWORLD). Axioloid containing culture plates were cultured at 37° C. and 5% CO2. Oscillations were measured for 48 hours and each well was measured for 10 seconds with 8 min intervals. Intensity values were processed using Matlab. Temporal trend was obtained by subtracting moving average (window size of 10 h), and the detrended signal was smoothed by Savitzky-Golay filter (window size of 3 h). Instantaneous oscillation phase was calculated by applying Hilbert transform, then peak detection was performed on cosine values of instantaneous oscillation phase. Peak-to-peak period was then quantified on each n-th oscillation.

SMILES: CC1=C(/C=C/C(C)=C/C=C/C(C)=C/C=O)C(C)(C)CCC1 [RAL, all trans-Retinal]
- stability and epithelialization of forming segments (human Axioloids): dramatic improvement of the stability and epithelialization of forming segments
- oscillatory activity including periodicity of HES7 [1]: largely no effect

Source: patent publication US20250223559A1, “AXIOLOID: A STEM CELL-BASED MODEL OF HUMAN AXIAL DEVELOPMENT” (KYOTO UNIVERSITY, priority 2022, published 2025)
